Assay results taken from patent publication US20200222474A1, “COMPOSITIONS AND METHODS FOR INCREASING PHYTOCHEMICAL BIOAVAILABLITY AND BIOACTIVITY” (North Carolina State University, priority 2017, published 2020).

Test system: L. acidophilus NCFM
Experiment: RNA-seq transcriptional analysis of L. acidophilus NCFM growing on plant glycosides
Format: cell-based, Lactobacillus acidophilus
[1] = LBA0329 Putative cell division protein, COG D
[2] = LBA0466 Hypothetical protein, COG C
[3] = LBA0500 MSM operon repressor, COG K
[4] = LBA0545 Hypothetical protein, COG L
[5] = LBA0547 Putative site-specific recombinase, COG L
[6] = LBA0573 Putative transcriptional regulator, COG K
[7] = LBA0607 Putative transcriptional regulator, COG K
[8] = LBA0672 Putative phosphate starvation inducible protein stress related, COG J
[9] = LBA0753 Multi-drug-type permease, COG GEPR
[10] = LBA0886 Sugar kinase-putative transcriptional regulator, COG KG
[11] = LBA0887 Hypothetical protein, COG C
[12] = LBA0897 Putative Cro-like protein, COG K
[13] = LBA0910 L-lactate dehydrogenase, COG C
[14] = LBA1021 Putative transcriptional regulator, COG K
[15] = LBA1220 Pyridine mercuric reductase, COG C
[16] = LBA1392 Mucus binding protein precursor Mub, COG J
[17] = LBA1411 Fumarate reductase flavoprotein subunit, COG CS
[18] = LBA1436 Glycerol uptake facilitator protein, COG G
[19] = LBA1457 Galactose-1-epimerase, COG G
[20] = LBA1458 Galactose-1-phosphate uridylyltransferase, COG G
[21] = LBA1462 Beta-galactosidase, COG G
[22] = LBA1463 Lactose permease, COG G
[23] = LBA1465 Transcription repressor of beta-galactosidasegene, COG K
[24] = LBA1467 Beta-galactosidase large subunit (lactase), COG G
[25] = LBA1468 Beta-galactosidase small subunit, COG G
[26] = LBA1481 D-ribose-binding protein precursor, COG G
[27] = LBA1482 Ribose ABC transporter, COG G
[28] = LBA1483 Ribose ABC transporter ATP binding protein, COG G
[29] = LBA1484 D-ribose pyranase, COG G
[30] = LBA1494 Lincomycin-resistance protein, COG GEPR
[31] = LBA1607 Phosphatidylserine decarboxylase precursor, COG I
[32] = LBA1632 NAD-dependent aldehyde dehydrogenase, COG C
[33] = LBA1653 Nicotinamide mononucleotide, COG H
[34] = LBA1684 Putative PTS system IIA component, COG G
[35] = LBA1689 Maltose-6′-phosphate Oucosidase, COG G
[36] = LBA1700 Transcriptional regulator-type, COG K
[37] = LBA1701 Melibiose operon regulatory protein, COG K
[38] = LBA1705 PTS system IIBC component, COG G
[39] = LBA1708 Transcriptional antiterminator, COG K
[40] = LBA1710 Thermostable pullulanase, COG G
[41] = LBA1812 Alpha-glucosidase II, COG G
[42] = LBA1870 Maltose phosphorylase, COG G
[43] = LBA1872 Oligo-1,6-glucosidase, COG G

Question: What does the source list for OC[C@H]1O[C@@H](O[C@H]2[C@H](O)[C@@H](O)[C@@H](O)O[C@@H]2CO)[C@H](O)[C@@H](O)[C@H]1O [Lac]?
Answer: Log2 differential normalized TPM ratio compared to glucose (LBA0016 Fructokinase, COG KG): 1.2; Transcripts per million (rpm) (LBA0016 Fructokinase, COG KG): 211.4 rpm; Log2 differential normalized TPM ratio compared to glucose [1]: 0.4; Transcripts per million (rpm) [1]: 22.1 rpm; Log2 differential normalized TPM ratio compared to glucose [2]: 1.5; Transcripts per million (rpm) [2]: 270 rpm; Log2 differential normalized TPM ratio compared to glucose [3]: 1.6; Transcripts per million (rpm) [3]: 162 rpm; Log2 differential normalized TPM ratio compared to glucose [4]: 2; Transcripts per million (rpm) [4]: 306 rpm; Log2 differential normalized TPM ratio compared to glucose [5]: 1.7; Transcripts per million (rpm) [5]: 37.9 rpm; Log2 differential normalized TPM ratio compared to glucose [6]: 0.1; Transcripts per million (rpm) [6]: 98.5 rpm; Log2 differential normalized TPM ratio compared to glucose [7]: 0.5; Transcripts per million (rpm) [7]: 66.9 rpm; Log2 differential normalized TPM ratio compared to glucose [8]: 0.8; Transcripts per million (rpm) [8]: 2957.4 rpm; Log2 differential normalized TPM ratio compared to glucose [9]: −0.8; Transcripts per million (rpm) [9]: 29.5 rpm; Log2 differential normalized TPM ratio compared to glucose [10]: 0.2; Transcripts per million (rpm) [10]: 7.7 rpm; Log2 differential normalized TPM ratio compared to glucose [11]: 1.2; Transcripts per million (rpm) [11]: 133.7 rpm; Log2 differential normalized TPM ratio compared to glucose [12]: −2.4; Transcripts per million (rpm) [12]: 0.5 rpm; Log2 differential normalized TPM ratio compared to glucose [13]: 1; Transcripts per million (rpm) [13]: 257.2 rpm; Log2 differential normalized TPM ratio compared to glucose [14]: 0.3; Transcripts per million (rpm) [14]: 186.9 rpm; Log2 differential normalized TPM ratio compared to glucose [15]: 1; Transcripts per million (rpm) [15]: 394.7 rpm; Log2 differential normalized TPM ratio compared to glucose [16]: −0.2; Transcripts per million (rpm) [16]: 88.9 rpm; Log2 differential normalized TPM ratio compared to glucose [17]: 1.1; Transcripts per million (rpm) [17]: 4.7 rpm; Log2 differential normalized TPM ratio compared to glucose [18]: 3.8; Transcripts per million (rpm) [18]: 37 rpm; Log2 differential normalized TPM ratio compared to glucose [19]: 5.6; Transcripts per million (rpm) [19]: 732.6 rpm; Log2 differential normalized TPM ratio compared to glucose [20]: 5.7; Transcripts per million (rpm) [20]: 679.9 rpm; Log2 differential normalized TPM ratio compared to glucose (LBA1459 Galactokinase, COG G): 4.6; Transcripts per million (rpm) (LBA1459 Galactokinase, COG G): 610.1 rpm; Log2 differential normalized TPM ratio compared to glucose [21]: 6; Transcripts per million (rpm) [21]: 1123.2 rpm; Log2 differential normalized TPM ratio compared to glucose [22]: 4.7; Transcripts per million (rpm) [22]: 1427.3 rpm; Log2 differential normalized TPM ratio compared to glucose (LBA1464 Transposase, COG L): 2.4; Transcripts per million (rpm) (LBA1464 Transposase, COG L): 956 rpm; Log2 differential normalized TPM ratio compared to glucose [23]: 3.1; Transcripts per million (rpm) [23]: 485.8 rpm; Log2 differential normalized TPM ratio compared to glucose [24]: 8.8; Transcripts per million (rpm) [24]: 2333 rpm; Log2 differential normalized TPM ratio compared to glucose [25]: 6.4; Transcripts per million (rpm) [25]: 1790.7 rpm; Log2 differential normalized TPM ratio compared to glucose [26]: 0.7; Transcripts per million (rpm) [26]: 8.1 rpm; Log2 differential normalized TPM ratio compared to glucose [27]: 1; Transcripts per million (rpm) [27]: 7.9 rpm; Log2 differential normalized TPM ratio compared to glucose [28]: 1; Transcripts per million (rpm) [28]: 6.4 rpm; Log2 differential normalized TPM ratio compared to glucose [29]: 0.6; Transcripts per million (rpm) [29]: 6.1 rpm; Log2 differential normalized TPM ratio compared to glucose (LBA1485 Ribokinase, COG G): 0.7; Transcripts per million (rpm) (LBA1485 Ribokinase, COG G): 5.2 rpm; Log2 differential normalized TPM ratio compared to glucose [30]: 0.1; Transcripts per million (rpm) [30]: 5.7 rpm; Log2 differential normalized TPM ratio compared to glucose [31]: 1; Transcripts per million (rpm) [31]: 41.1 rpm; Log2 differential normalized TPM ratio compared to glucose [32]: 1.8; Transcripts per million (rpm) [32]: 253.3 rpm; Log2 differential normalized TPM ratio compared to glucose [33]: 0.6; Transcripts per million (rpm) [33]: 369.4 rpm; Log2 differential normalized TPM ratio compared to glucose [34]: 1.9; Transcripts per million (rpm) [34]: 48 rpm; Log2 differential normalized TPM ratio compared to glucose [35]: 1.4; Transcripts per million (rpm) [35]: 9.7 rpm; Log2 differential normalized TPM ratio compared to glucose [36]: 0.4; Transcripts per million (rpm) [36]: 28.8 rpm; Log2 differential normalized TPM ratio compared to glucose [37]: 0.8; Transcripts per million (rpm) [37]: 69.9 rpm; Log2 differential normalized TPM ratio compared to glucose [38]: 0.8; Transcripts per million (rpm) [38]: 6.1 rpm; Log2 differential normalized TPM ratio compared to glucose [39]: 1.4; Transcripts per million (rpm) [39]: 1.6 rpm; Log2 differential normalized TPM ratio compared to glucose [40]: 0.4; Transcripts per million (rpm) [40]: 9.9 rpm; Log2 differential normalized TPM ratio compared to glucose (LBA1723 Transposase, COG L): 0.2; Transcripts per million (rpm) (LBA1723 Transposase, COG L): 62 rpm; Log2 differential normalized TPM ratio compared to glucose [41]: 2; Transcripts per million (rpm) [41]: 68.8 rpm; Log2 differential normalized TPM ratio compared to glucose [42]: −1.2; Transcripts per million (rpm) [42]: 46.3 rpm; Log2 differential normalized TPM ratio compared to glucose (LBA1871 Neopullulanase, COG G): 0.7; Transcripts per million (rpm) (LBA1871 Neopullulanase, COG G): 4.5 rpm; Log2 differential normalized TPM ratio compared to glucose [43]: 0.4; Transcripts per million (rpm) [43]: 4 rpm; Log2 differential normalized TPM ratio compared to glucose (LBA1873 Acetate kinase, COG C): 1.4; Transcripts per million (rpm) (LBA1873 Acetate kinase, COG C): 9 rpm
